# Measured values published in patent US8933075B2, “Compounds useful as antiviral agents, compositions, and methods of use” (priority 2010, dated 2015).
# How the values were obtained:
# A/Udorn/72 (H3N2) virus = assay: Plaque assay in MDCK cells: EC50 by reduction of plaque number; format: cell-based, influenza virus; details: MDCK
# pseudoHIV particles = assay: HIV pseudovirus assay in X4 cells (luciferase); format: cell-based, HIV-1; details: Human immunodeficiency virus 1, read-out: HIV EC50
# Procedure: A plasmid coding the HIV-1 genome, deleting the envelope protein gene and with a luciferase gene inserted, and a plasmid coding the envelope protein gene were cotransfected into 293T cells. After 48 hr, the supernatant containing pseudoHlV particles was collected for transducing assay. In 96 well plates, X4 cells were plated and incubated till confluent. The pseudoHlV particles were incubated with various concentrations of inhibitor compounds for one hour in room temperature. The particles were then used for tranducing X4 cells. The transduced X4 cells were lysed after 48 hr and the luciferase activity was measured in a luminometer.
# [1] = tested on: influenza viruses that have HA subtypes H1 and H2; details: cited from earlier work
# [2] = tested on: influenza viruses that have HA subtype H3; details: cited from earlier work
# influenza virus = details: cited from earlier work
# H1 and H2 viruses = details: cited from earlier work
# H3 viruses = details: cited from earlier work
molecule,measurement,setting,value
COc1cc(OC)cc(-c2cc(CCCNC(=O)[C@@H](N)CC(N)=O)c(/C=C3\SC(=S)N(C4CC5CCC4C5)C3=O)o2)c1 (some centres unmarked) [Compound 168],EC50,A/Udorn/72 (H3N2) virus,< 100 nM
same,EC50,pseudoHIV particles,< 100 nM
O=C1/C(=C/c2oc(-c3ccccc3)cc2CO)SC(=S)N1C1C2CC3CC(C2)CC1C3 (centres unmarked) [Compound 92],EC50,A/Udorn/72 (H3N2) virus,< 100 nM
same,EC50,pseudoHIV particles,100 to 250 nM
COc1cc(OC)cc(-c2cc(CCCN)c(/C=C3\SC(=S)N(C4C5CC6CC(C5)CC4C6)C3=O)o2)c1 (centres unmarked) [Compound 121],EC50,A/Udorn/72 (H3N2) virus,< 100 nM
same,EC50,pseudoHIV particles,< 100 nM
COc1cc(OC)cc(-c2cc(CCCCO)c(/C=C3\SC(=S)N(C4CC5CCC4C5)C3=O)o2)c1 (centres unmarked) [Compound 113],EC50,A/Udorn/72 (H3N2) virus,< 100 nM
same,EC50,pseudoHIV particles,< 100 nM
COc1cc(OC)cc(-c2cc(CCCOC(=O)[C@@H](N)Cc3ccc(O)cc3)c(/C=C3\SC(=S)N(C4CC5CCC4C5)C3=O)o2)c1 (some centres unmarked) [Compound 151],EC50,A/Udorn/72 (H3N2) virus,< 100 nM
same,EC50,pseudoHIV particles,< 100 nM
COc1cc(OC)cc(-c2cc(CCCNC(=O)[C@H](CC(N)=O)NC(=O)OC(C)(C)C)c(/C=C3\SC(=S)N(C4CC5CCC4C5)C3=O)o2)c1 (some centres unmarked) [Compound 156],EC50,A/Udorn/72 (H3N2) virus,< 100 nM
same,EC50,pseudoHIV particles,< 100 nM
COc1ccc(-c2ccc(/C=C3\SC(=S)N(C4C5CC6CC(C5)CC4C6)C3=O)o2)cc1O (centres unmarked) [Compound 23],EC50,A/Udorn/72 (H3N2) virus,< 100 nM
same,EC50,pseudoHIV particles,< 100 nM
COc1cc(OC)cc(-c2cc(CCCCO)c(/C=C3\SC(=S)N(C4C5CC6CC(C5)CC4C6)C3=O)o2)c1 (centres unmarked) [Compound 114],EC50,A/Udorn/72 (H3N2) virus,< 100 nM
same,EC50,pseudoHIV particles,< 100 nM
CCOC(=O)COc1cc(-c2ccc(/C=C3\SC(=S)N(C4CC5CCC4C5)C3=O)o2)ccc1OC (centres unmarked) [Compound 22],EC50,A/Udorn/72 (H3N2) virus,< 100 nM
same,EC50,pseudoHIV particles,< 100 nM
COc1cc(OC)cc(-c2ccc(/C=C3\SC(=S)N(C4C5CC6CC(C5)CC4C6)C3=O)o2)c1 (centres unmarked) [Compound 20],EC50,A/Udorn/72 (H3N2) virus,< 100 nM
same,EC50,pseudoHIV particles,< 100 nM
COc1cc(OC)cc(-c2cc(CCCNC(=O)[C@@H](N)Cc3ccccc3)c(/C=C3\SC(=S)N(C4CC5CCC4C5)C3=O)o2)c1 (some centres unmarked) [Compound 171],EC50,A/Udorn/72 (H3N2) virus,< 100 nM
same,EC50,pseudoHIV particles,< 100 nM
COc1cc(OC)cc(-c2cc(CCCNC(=N)N)c(/C=C3\SC(=S)N(C4CC5CCC4C5)C3=O)o2)c1 (centres unmarked) [Compound 195],EC50,A/Udorn/72 (H3N2) virus,< 100 nM
same,EC50,pseudoHIV particles,< 100 nM
C[C@@H]1CCC[C@@H]2C[C@@H](NC(=O)c3cc(Cl)c(N)cc3O)CCN21 [BMY-27709],EC50,[1],6000 to 8000 nM
same,activity against H3,[2],not H3
COc1cc(OC)cc(-c2cc(CCCO)c(/C=C3\SC(=S)N(C4C5CC6CC(C5)CC4C6)C3=O)o2)c1 (centres unmarked) [Compound 95],EC50,A/Udorn/72 (H3N2) virus,< 100 nM
same,EC50,pseudoHIV particles,< 100 nM
COc1cc(O)cc(-c2cc(CCCNC(=O)[C@@H](N)CC(N)=O)c(/C=C3\SC(=S)N(C4CC5CCC4C5)C3=O)o2)c1 (some centres unmarked) [Compound 174],EC50,A/Udorn/72 (H3N2) virus,< 100 nM
same,EC50,pseudoHIV particles,< 100 nM
COc1cc(O)cc(-c2cc(CCCN)c(/C=C3\SC(=S)N(C4C5CC6CC(C5)CC4C6)C3=O)o2)c1 (centres unmarked) [Compound 123],EC50,A/Udorn/72 (H3N2) virus,< 100 nM
same,EC50,pseudoHIV particles,< 100 nM
O=C1/C(=C/c2oc(-c3ccc(Cl)cc3)cc2CCCO)SC(=S)N1C1CC2CCC1C2 (centres unmarked) [Compound 99],EC50,A/Udorn/72 (H3N2) virus,< 100 nM
same,EC50,pseudoHIV particles,< 100 nM
OC(CCN1CCCCC1)(c1ccccc1)C1C2CC3C(C2)C31 (centres unmarked) [Triperiden],concentration inhibiting influenza virus replication,influenza virus,20 µg/mL
COc1cc(OCC(=O)N[C@@H](Cc2ccccc2)C(=O)O)cc(-c2ccc(/C=C3\SC(=S)N(C4CC5CCC4C5)C3=O)o2)c1 (some centres unmarked) [Compound 83],EC50,A/Udorn/72 (H3N2) virus,< 100 nM
same,EC50,pseudoHIV particles,< 100 nM
COc1cc(OC)cc(-c2cc(CCCNC(=O)[C@@H](N)Cc3ccc(O)cc3)c(/C=C3\SC(=S)N(C4CC5CCC4C5)C3=O)o2)c1 (some centres unmarked) [Compound 167],EC50,A/Udorn/72 (H3N2) virus,< 100 nM
same,EC50,pseudoHIV particles,< 100 nM
COC(=O)c1cc(-c2ccc(/C=C3\SC(=S)N(C4C5CC6CC(C5)CC4C6)C3=O)o2)cc(OC)c1OC (centres unmarked) [Compound 32],EC50,A/Udorn/72 (H3N2) virus,< 100 nM
same,EC50,pseudoHIV particles,< 100 nM
Stachyflin,EC50,H1 and H2 viruses,μM range
same,activity against H3 viruses,H3 viruses,not H3
COc1cc(OC)cc(-c2cc(/C=C/C(=O)O)c(/C=C3\SC(=S)N(C4CC5CCC4C5)C3=O)o2)c1 (centres unmarked) [Compound 130],EC50,A/Udorn/72 (H3N2) virus,< 100 nM
same,EC50,pseudoHIV particles,< 100 nM
COc1cc(OC)cc(-c2cc(CCCNC(=O)[C@@H](N)c3ccccc3)c(/C=C3\SC(=S)N(C4CC5CCC4C5)C3=O)o2)c1 (some centres unmarked) [Compound 170],EC50,A/Udorn/72 (H3N2) virus,< 100 nM
same,EC50,pseudoHIV particles,< 100 nM
COc1cc(O)cc(-c2cc(CCCO)c(/C=C3\SC(=S)N(C4CC5CCC4C5)C3=O)o2)c1 (centres unmarked) [Compound 101],EC50,A/Udorn/72 (H3N2) virus,< 100 nM
same,EC50,pseudoHIV particles,< 100 nM
COc1cc(OC)cc(-c2cc(CCC(=O)O)c(/C=C3\SC(=S)N(C4C5CC6CC(C5)CC4C6)C3=O)o2)c1 (centres unmarked) [Compound 129],EC50,A/Udorn/72 (H3N2) virus,< 100 nM
same,EC50,pseudoHIV particles,< 100 nM
COc1cc(OC)cc(-c2ccc(/C=C3\SC(=S)N(C4CC5CCC4C5)C3=O)o2)c1 (centres unmarked) [Compound 19],EC50,A/Udorn/72 (H3N2) virus,< 100 nM
same,EC50,pseudoHIV particles,< 100 nM
COc1cc(OC)cc(-c2cc(CCCNC(=O)[C@H](Cc3ccccc3)NC(=O)OC(C)(C)C)c(/C=C3\SC(=S)N(C4CC5CCC4C5)C3=O)o2)c1 (some centres unmarked) [Compound 157],EC50,A/Udorn/72 (H3N2) virus,< 100 nM
same,EC50,pseudoHIV particles,< 100 nM
COc1cc(O)cc(-c2cc(CCCNC(=N)N)c(/C=C3\SC(=S)N(C4CC5CCC4C5)C3=O)o2)c1 (centres unmarked) [Compound 194],EC50,A/Udorn/72 (H3N2) virus,< 100 nM
same,EC50,pseudoHIV particles,< 100 nM
NCCCc1cc(-c2ccc(Cl)cc2)oc1/C=C1\SC(=S)N(C2C3CC4CC(C3)CC2C4)C1=O (centres unmarked) [Compound 125],EC50,A/Udorn/72 (H3N2) virus,< 100 nM
same,EC50,pseudoHIV particles,< 100 nM
